# Laboratory results: paper PMC7853623, “Dose- and time-dependent tolerability and efficacy of organo-osmium complex FY26 and its tissue pharmacokinetics in hepatocarcinoma-bearing mice” (Metallomics: Integrated Biometal Science, 2020)
# Test: Tumour and liver osmium uptake after a single ip dose (Experiment 5, ICP-MS)
# Assay type: in vivo, C57Bl/6 mice
# Method: Experiment 5 determined FY26⋅Cl uptake in mouse tumour and liver. Hepa1–6-bearing mice were randomly assigned to either treatment or control groups. They received a single ip injection of 5, 10, or 20 mg/kg of FY26⋅Cl or 0.1 M PBS (vehicle) at ZT6 (Table 1). The mice from pre-set subgroups were culled at 6, 24, or 48 h after injection. The subcutaneous tumours in both flanks, as well as liver, spleen, one kidney, an ileum, and a colon segment and brain were sampled and stored at −80°C.
# For Experiments 1 and 2, FY26⋅PF6 was diluted in the vehicle, composed of 1% Tween 80 (Sigma-Aldrich, Gillingham, UK), 5% DMSO (Corning, New York, USA) and 94% of 0.9% saline (Prep room, Life Sciences, University of Warwick) under laminar flow. FY26⋅PF6 concentration was confirmed with ICP-MS. For Experiments 3–5, using FY26⋅Cl, a stock solution of 50 mg/ml FY26⋅Cl was prepared in 0.9% saline on the day of injection and diluted as required; the vehicle consisted of 0.9% saline.
# Liver tissue was homogenized by manual mechanical grinding (pestle and mortar) while frozen under liquid N2. Once thawed, ∼90–110 mg of homogenized tissue was pipetted into microwave reaction vessels (10 ml), and tetramethylammonium hydroxide (TMAH, 25% m/v, 2 ml) was added. Tumour tissue was not homogenized and instead digested as whole tissue. It was weighed directly into microwave vials and TMAH was added (100 µl per 5 mg tissue, minimum of 500 µl added). The samples were digested via microwave irradiation (CEM SP-D Discover® microwave reactor, ≥300 W, ≥450 psi) at 200°C for 10 min. Digested samples were diluted in one part DDIW, and then centrifuged at 9000 rpm for 10 min at 20°C. The final analytical samples were prepared by a further 1 in 12.5 dilution in DDIW (total dilution of 1 in 25), ensuring a final TMAH concentration of 1% and total dissolved solids <0.1% […]. TMAH digestion was selected to circumvent the formation of volatile Os species with nitric acid.
# Analyses of digested tissue samples were carried out on an Agilent Technologies ICP-MS 7900 spectrometer in a basic aqueous matrix of TMAH (1%, m/v). The osmium concentrations were determined via isotopic detection of ^189Os in gas (He) and no-gas modes, and samples were referenced internally to ^100Ru (10 ppb). A concentration calibration curve was produced by serial dilutions of an osmium standard (1000 ppm) in 1% TMAH: 0, 0.1, 0.25, 0.5, 1, 2.5, 5, 10, 25, 50, 100, 250, 500, and 1000 ppb.
compound,measurement,setting,value
CN(C)c1ccc(N=Nc2ccccn2)cc1.Cc1ccc(C(C)C)cc1.[Cl-].[I-].[Os+2] [FY26⋅Cl],liver [Os] levels at 6 h relative to 20 or 10 mg/kg,"5 mg/kg single ip, 6 h",nearly halved
same,liver [Os] levels over time,20 mg/kg single ip,remained almost constant until 48 h
same,tumour [Os] levels over time,"20 mg/kg single ip, 6, 24 and 48 h",remained almost constant over time
same,liver [Os] concentrations over time,10 and 5 mg/kg single ip,decreased sharply at 24 h and remained stable until 48 h
same,tumour [Os] levels over time,"10 and 5 mg/kg single ip, tumours of both flanks",decreased at 24 h and slightly increased at 48 h
same,tumour uptake as compared to liver (less),"6 h post-treatment, single ip dose at ZT6, both tumours",~10 fold
